According to EP1200406B1, “CYCLIC AMIDES AND IMIDES HAVING SELECTIVE ANTAGONIST ACTIVITY AT ALPHA-1D ADRENERGIC RECEPTOR” (RECORDATI INDUSTRIA CHIMICA E FARMACEUTICA S.p.a., priority 1999, dated 2001):
Like-named read-outs stand apart in the source and are kept apart here.

Legend:
[1] = biological target: T1, human recombinant α1a adrenoceptor (Homo sapiens, UniProt P35348); assay: Radioligand binding ([3H]prazosin) on membranes of CHO cells expressing cloned α1a adrenoceptor; details: human cloned receptor, CHO cell membranes, 0.2 nM [3H]prazosin; read-out: Affinity (Ki) α1a
T1 construct: expressed in transfected cells; host or cells: CHO cells (membranes)
T1 sequence (P35348 1-466): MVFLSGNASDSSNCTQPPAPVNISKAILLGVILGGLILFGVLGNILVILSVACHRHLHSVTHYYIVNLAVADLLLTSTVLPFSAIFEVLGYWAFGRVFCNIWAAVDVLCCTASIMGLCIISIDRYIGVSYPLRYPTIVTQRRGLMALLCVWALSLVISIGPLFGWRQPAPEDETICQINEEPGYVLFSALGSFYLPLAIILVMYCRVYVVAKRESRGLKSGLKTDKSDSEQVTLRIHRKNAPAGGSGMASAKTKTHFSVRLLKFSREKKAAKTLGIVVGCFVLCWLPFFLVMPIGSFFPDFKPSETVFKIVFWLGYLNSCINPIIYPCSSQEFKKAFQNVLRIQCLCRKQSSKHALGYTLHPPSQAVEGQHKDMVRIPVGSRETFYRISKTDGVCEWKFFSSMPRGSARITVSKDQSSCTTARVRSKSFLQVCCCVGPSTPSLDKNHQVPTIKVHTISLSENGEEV
Method: (§1) The determination of affinity for cloned subtypes of human α1 adrenergic receptors was performed in membranes from CHO cells (chinese hamster ovary cells) transfected by electroporation with DNA expressing the genes encoding each α1-adrenoceptor subtype, namely α1a, α1b and α1d.. Cloning and stable expression of the human α1-adrenoceptor gene were performed as previously described (Testa et al., Pharmacol. Comm. 6, 79-86 (1995)). CHO cell membranes were incubated in […] Tris pH 7.4 with 0.2 nM [^3H]prazosin, in a final volume of 1.02 ml for 30 minutes at 25°C, in the absence or presence of competing drugs (1 pM-10 µM). Non-specific binding was determined in the presence of 10 µM phentolamine. Incubation was stopped by addition of ice-cold Tris buffer and rapid filtration through 0.2% polyethyleneimine pretreated Schleicher & Schuell GF52 filters. […] The HeLa cells were grown as monolayers in Dulbecco's modified Eagle's medium (DMEM), supplemented with 10% foetal calf serum and gentamicin (100 µg/ml), 5% CO2, at 37°C. The cells were detached from the growth flask at 95% confluence by a cell scraper and were lysed in ice-cold 5 mM Tris and 5-mM EDTA buffer (pH 7.4). The homogenates were centrifuged at 40000 x g x 20 minutes and the membranes were re-suspended in a small volume of ice-cold 5 mM Tris and 5-mM EDTA buffer (pH 7.4) and immediately frozen and stored at -70°C until use. On the experiment day, the cell membranes were re-suspended in a buffer containing 50 mM Tris (pH 7.4), 2.5 mM MgCl2, 10 µM pargyline (Fargin et al., Nature 335, 358-360 (1988)). […] The incubation was stopped by addition of ice-cold Tris buffer and rapid filtration through 0.2%-polyethyleneimine-pretreated Schleicher & Schuell filters. The inhibition of specific binding of the radioligands by the drugs was analysed to estimate the IC50 value by using the non-linear curve-fitting programme Allfit (De Lean et al., Am. J. Physiol. 235, E97-E102 (1978)). The IC50 value was converted to an affinity constant (Ki) by the equation of Cheng & Prusoff (Biochem. Pharmacol. 22, 3099-3108 (1973)). Data were expressed as mean of Ki.

[2] = biological target: T2, human recombinant α1b adrenoceptor (Homo sapiens, UniProt P35368); assay: Radioligand binding ([3H]prazosin) on membranes of CHO cells expressing cloned α1b adrenoceptor; details: human cloned receptor, CHO cell membranes, 0.2 nM [3H]prazosin; read-out: Affinity (Ki) α1b
T2 construct: expressed in transfected cells; host or cells: CHO cells (membranes)
T2 sequence (P35368 1-520): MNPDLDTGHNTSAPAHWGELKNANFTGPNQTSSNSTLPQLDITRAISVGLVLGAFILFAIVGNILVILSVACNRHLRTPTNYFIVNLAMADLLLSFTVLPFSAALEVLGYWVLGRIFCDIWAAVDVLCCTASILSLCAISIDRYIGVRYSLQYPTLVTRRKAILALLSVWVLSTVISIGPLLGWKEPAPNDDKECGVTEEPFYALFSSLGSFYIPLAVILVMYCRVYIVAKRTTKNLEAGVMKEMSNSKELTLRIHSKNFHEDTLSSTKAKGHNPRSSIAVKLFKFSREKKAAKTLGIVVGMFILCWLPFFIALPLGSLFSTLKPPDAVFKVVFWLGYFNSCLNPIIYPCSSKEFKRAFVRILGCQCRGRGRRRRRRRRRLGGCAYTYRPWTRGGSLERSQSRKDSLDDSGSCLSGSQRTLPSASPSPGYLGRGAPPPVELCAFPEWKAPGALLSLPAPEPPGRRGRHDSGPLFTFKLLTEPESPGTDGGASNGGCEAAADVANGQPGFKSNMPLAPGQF
Method: (§2) The determination of affinity for cloned subtypes of human α1 adrenergic receptors was performed in membranes from CHO cells (chinese hamster ovary cells) transfected by electroporation with DNA expressing the genes encoding each α1-adrenoceptor subtype, namely α1a, α1b and α1d.. Cloning and stable expression of the human α1-adrenoceptor gene were performed as previously described (Testa et al., Pharmacol. Comm. 6, 79-86 (1995)). CHO cell membranes were incubated in […] Tris pH 7.4 with 0.2 nM [^3H]prazosin, in a final volume of 1.02 ml for 30 minutes at 25°C, in the absence or presence of competing drugs (1 pM-10 µM). Non-specific binding was determined in the presence of 10 µM phentolamine. Incubation was stopped by addition of ice-cold Tris buffer and rapid filtration through 0.2% polyethyleneimine pretreated Schleicher & Schuell GF52 filters. Genomic clone G-21 coding for the human 5-HT1A-serotoninergic receptor was stably transfected in a human cell line (HeLa) (Fargin et al., J. Biol. Chem. 284, 14848-14852 (1989)). The HeLa cells were grown as monolayers in Dulbecco's modified Eagle's medium (DMEM), supplemented with 10% foetal calf serum and gentamicin (100 µg/ml), 5% CO2, at 37°C. The cells were detached from the growth flask at 95% confluence by a cell scraper and were lysed in ice-cold 5 mM Tris and 5-mM EDTA buffer (pH 7.4). The homogenates were centrifuged at 40000 x g x 20 minutes and the membranes were re-suspended in a small volume of ice-cold 5 mM Tris and 5-mM EDTA buffer (pH 7.4) and immediately frozen and stored at -70°C until use. On the experiment day, the cell membranes were re-suspended in a buffer containing 50 mM Tris (pH 7.4), 2.5 mM MgCl2, 10 µM pargyline (Fargin et al., Nature 335, 358-360 (1988)). […] The incubation was stopped by addition of ice-cold Tris buffer and rapid filtration through 0.2%-polyethyleneimine-pretreated Schleicher & Schuell filters. The inhibition of specific binding of the radioligands by the drugs was analysed to estimate the IC50 value by using the non-linear curve-fitting programme Allfit (De Lean et al., Am. J. Physiol. 235, E97-E102 (1978)). The IC50 value was converted to an affinity constant (Ki) by the equation of Cheng & Prusoff (Biochem. Pharmacol. 22, 3099-3108 (1973)). Data were expressed as mean of Ki.

[3] = biological target: T3, human 5-HT1A-serotoninergic receptor (Homo sapiens, UniProt P08908); assay: Radioligand binding ([3H]8-OH-DPAT) on membranes of HeLa cells expressing cloned 5-HT1A receptor; details: read-out: Affinity (Ki) 5-HT1A
T3 construct: expressed in transfected cells; host or cells: HeLa cells (membranes)
T3 sequence (P08908 1-422): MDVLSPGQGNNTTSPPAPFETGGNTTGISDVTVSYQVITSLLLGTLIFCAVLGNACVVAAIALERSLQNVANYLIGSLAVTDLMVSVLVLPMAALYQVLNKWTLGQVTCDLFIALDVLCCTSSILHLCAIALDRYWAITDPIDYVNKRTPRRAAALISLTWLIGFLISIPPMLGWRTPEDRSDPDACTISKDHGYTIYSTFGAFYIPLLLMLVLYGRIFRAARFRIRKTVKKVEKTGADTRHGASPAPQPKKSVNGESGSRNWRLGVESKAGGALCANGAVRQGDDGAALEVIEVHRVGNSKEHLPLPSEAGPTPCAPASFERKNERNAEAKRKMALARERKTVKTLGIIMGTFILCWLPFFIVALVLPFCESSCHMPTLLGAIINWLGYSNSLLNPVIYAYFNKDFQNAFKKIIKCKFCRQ
Method: as §2

[4] = biological target: T4, human recombinant α1d adrenoceptor (Homo sapiens, UniProt P25100); assay: Radioligand binding ([3H]prazosin) on membranes of CHO cells expressing cloned α1d adrenoceptor; details: human cloned receptor, CHO cell membranes, 0.2 nM [3H]prazosin; read-out: Affinity (Ki) α1d
T4 construct: expressed in transfected cells; host or cells: CHO cells (membranes)
T4 sequence (P25100 1-572): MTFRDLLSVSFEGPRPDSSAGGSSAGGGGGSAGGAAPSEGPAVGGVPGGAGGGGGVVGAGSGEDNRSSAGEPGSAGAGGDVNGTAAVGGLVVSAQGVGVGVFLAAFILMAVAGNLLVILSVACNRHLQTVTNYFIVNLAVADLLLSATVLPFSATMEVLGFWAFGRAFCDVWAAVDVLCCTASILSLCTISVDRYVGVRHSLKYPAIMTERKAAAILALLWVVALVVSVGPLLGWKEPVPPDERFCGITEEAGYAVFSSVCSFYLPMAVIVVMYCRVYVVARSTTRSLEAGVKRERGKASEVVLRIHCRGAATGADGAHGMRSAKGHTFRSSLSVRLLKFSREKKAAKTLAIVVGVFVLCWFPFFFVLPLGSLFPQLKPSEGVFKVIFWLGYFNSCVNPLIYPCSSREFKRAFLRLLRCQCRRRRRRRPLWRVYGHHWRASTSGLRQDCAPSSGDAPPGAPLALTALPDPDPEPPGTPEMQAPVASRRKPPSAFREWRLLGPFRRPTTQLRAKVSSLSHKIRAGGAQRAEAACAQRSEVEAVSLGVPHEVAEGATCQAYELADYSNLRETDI
Method: as §1

[5] = biological target: T5, Rat aorta α1D (Rattus norvegicus, UniProt P23944); assay: Functional antagonism of noradrenaline-induced contraction, rat aorta strips; assay type: cell-based, Sprague Dawley rats; details: noradrenaline as agonist, 30 minutes incubation, Schild plot; read-out: Functional affinity pKB, Rat aorta α1D (converted)
T5 construct: from tissue; host or cells: rat thoracic aorta, helicoidal strips
T5 sequence (P23944 1-561): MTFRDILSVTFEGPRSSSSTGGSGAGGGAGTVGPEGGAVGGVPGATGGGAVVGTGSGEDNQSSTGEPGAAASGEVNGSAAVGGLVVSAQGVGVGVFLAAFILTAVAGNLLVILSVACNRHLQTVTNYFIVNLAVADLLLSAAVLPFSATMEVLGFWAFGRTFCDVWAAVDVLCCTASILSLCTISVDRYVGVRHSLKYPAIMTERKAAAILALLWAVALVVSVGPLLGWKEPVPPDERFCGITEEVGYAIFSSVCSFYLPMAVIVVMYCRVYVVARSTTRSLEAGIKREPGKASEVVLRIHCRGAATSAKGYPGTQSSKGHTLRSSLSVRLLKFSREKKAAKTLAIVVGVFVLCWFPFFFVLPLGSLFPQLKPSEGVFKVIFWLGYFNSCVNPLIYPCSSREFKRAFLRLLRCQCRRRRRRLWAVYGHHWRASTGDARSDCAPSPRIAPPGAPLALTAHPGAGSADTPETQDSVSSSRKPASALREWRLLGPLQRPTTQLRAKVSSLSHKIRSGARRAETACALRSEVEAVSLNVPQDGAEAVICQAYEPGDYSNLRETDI
Method: In vitro assessment of functional antagonism for α1-adrenoceptor subtypes
Thoracic aorta was obtained from Sprague Dawley rats, cut in helicoidal strips and placed in Krebs solution containing desmethylimipramine (0.1 µM), corticosterone (1 µM), propranol (1 µM) and yohimbine (0.1 µM). The strips were mounted for isotonic tension recording in an organ bath containing the above Krebs buffer enriched and aerated constantly with 95% O2 and 5% CO2, maintained at 37°C and loaded with 1.5 g. After an equilibration period, the strips were primed twice with 10 µM noradrenaline, then concentration/response-to-the-agonist curves were constructed before (basal) and after 30 minutes incubation with single antagonist concentrations (response). The Schild-plot parameters were evaluated by linear-regression analysis according to Tallarida and Murray (Manual of Pharmacologic Calculations with Computer Programs, 53-56, Springer-Verlag).

[6] = human cloned receptor, HeLa cell membranes, 1.2 nM [3H]8-OH-DPAT

Ki [4] | Ki [3] | SMILES | Ki [1] | Ki [2] | Ki [3, 6] | Kb [5]
7.78 nM | > 1000 nM | O=C1CCC(=O)N1CCN1CCN(c2cc(Cl)ccc2Cl)CC1 [Example 12, 1-{2-[4-(2,5-Dichlorophenyl)-1-piperazinyl]-ethyl}-pyrrolidine-2,5-dione] | – | 86.4 nM | – | –
0.96 nM | 35.3 nM | O=C1CC2(CCCCCC2)CC(=O)N1CCN1CCN(c2cc(Cl)ccc2Cl)CC1 [Example 26, 3-{2-[4-(2,5-Dichlorophenyl)-1-piperazinyl]-ethyl}-3-azaspiro[5.6]dodecane-2,4-dione] | – | – | – | –

More lines, now with the values behind:

SMILES | Ki [4] | Ki [3] | Ki [1] | Ki [2] | Ki [3, 6] | Kb [5]
Cc1ccc(Cl)c(N2CCN(CCN3C(=O)CC4(CCCC4)CC3=O)CC2)c1 [Example 3, 8-{2-[4-(2-Chloro-5-methylphenyl)-1-pirerazinyl]-ethyl}-8-azaspiro[4.5]decane-7,9-dione] | – | – | 126 nM | 193 nM | 69.5 nM | –
O=C1CC2(CCCC2)CCN1CCN1CCN(c2cc(Cl)ccc2Cl)CC1 [Example 19, 8-{2-[4-(2,5-Dichlorophenyl)-1-piperazinyl]-ethyl}-8-azaspiro[4.5]decane-7-one] | – | – | – | 10.6 nM | 17.4 nM | 1.29 nM
O=C1CC2(CCCCC2)CCN1CCN1CCN(c2cc(Cl)ccc2Cl)CC1 [Example 25, 3-{2-[4-(2,5-Dichlorophenyl)-1-piperazinyl]-ethyl}-3-azaspiro[5.5]undecane-2-one] | 0.66 nM | 40.4 nM | – | – | – | –
